In one assay the target is HDAC5 (Homo sapiens (Human), UniProt Q9UQL6). Particulars: read-out: HDAC5 IC50.
The next assay concerns the target HDAC1 (Homo sapiens (Human), UniProt Q13547). Particulars: read-out: HDAC1 IC50.

pIC50: −log10 of the molar value.

What is called pIC50 is the IC50 on a negative log10 scale, so that one unit is a factor of ten.

Sequence of HDAC5 (Q9UQL6 656-1122): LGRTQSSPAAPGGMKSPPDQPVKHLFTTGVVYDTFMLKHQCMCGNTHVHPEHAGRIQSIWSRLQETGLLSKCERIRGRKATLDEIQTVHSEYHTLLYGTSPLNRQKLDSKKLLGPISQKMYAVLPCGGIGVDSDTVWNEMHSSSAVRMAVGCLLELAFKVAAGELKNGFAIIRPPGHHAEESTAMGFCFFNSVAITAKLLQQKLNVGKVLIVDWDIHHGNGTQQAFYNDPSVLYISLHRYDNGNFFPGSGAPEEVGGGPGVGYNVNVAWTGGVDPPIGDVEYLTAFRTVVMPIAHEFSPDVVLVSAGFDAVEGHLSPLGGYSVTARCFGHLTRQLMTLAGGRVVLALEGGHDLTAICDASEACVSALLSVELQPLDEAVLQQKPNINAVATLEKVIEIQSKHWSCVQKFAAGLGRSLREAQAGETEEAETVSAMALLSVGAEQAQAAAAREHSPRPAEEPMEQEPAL
Sequence of HDAC1 (Q13547 whole entry): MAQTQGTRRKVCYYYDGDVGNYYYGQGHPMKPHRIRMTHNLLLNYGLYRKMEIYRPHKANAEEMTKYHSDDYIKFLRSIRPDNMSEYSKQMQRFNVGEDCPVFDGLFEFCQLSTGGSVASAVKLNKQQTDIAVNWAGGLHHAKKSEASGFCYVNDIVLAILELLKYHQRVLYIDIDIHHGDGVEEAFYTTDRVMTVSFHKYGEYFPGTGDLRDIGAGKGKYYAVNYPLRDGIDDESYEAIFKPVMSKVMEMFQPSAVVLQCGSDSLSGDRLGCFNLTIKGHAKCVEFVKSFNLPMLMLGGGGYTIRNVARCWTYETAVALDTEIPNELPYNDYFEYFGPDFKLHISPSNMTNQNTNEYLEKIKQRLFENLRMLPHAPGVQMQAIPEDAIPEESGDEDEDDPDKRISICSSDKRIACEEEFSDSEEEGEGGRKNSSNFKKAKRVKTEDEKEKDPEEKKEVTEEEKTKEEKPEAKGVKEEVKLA
Description for HDAC1: Assay protocol: In brief, compounds were titrated in 100% DMSO via accoustic dispensing directly to the assay plate using the ECHO 550 [Labcyte]. HDAC enzymes at the concentrations indicated above were added in assay buffer to the assay plates containing the compounds using a Combi [Thermo Scientific]. The wells were mixed, and the plates were allowed to pre-incubate at ambient temperature for 3 h. After the 3 h, the appropriate substrate, at the concentrations indicated above, was added to the wells using a Combi. The wells were mixed, and the plates were allowed to incubate at ambient temperature for 1 h. After the 1 h, the appropriate Developer/stop solution was added to the wells using a Combi. The wells were mixed, and the plates were allowed to incubate at ambient temperature for 1 h. […] Data were analyzed using 4P curve fitting with Activity Base [IDBS] software.

For `Cc1ncc(OCc2ccc(-c3noc(C(F)(F)F)n3)c(F)c2)cn1` [Example 274, 5-({3-fluoro-4-[5-(trifluoromethyl)-1,2,4-oxadiazol-3-yl]phenyl}methoxy)-2-methylpyrimidine], the pIC50 at HDAC5 was 6.80; on HDAC1 it was 5.40.

Consider `COc1ccc2cc(OCc3ccc(-c4noc(C(F)(F)F)n4)c(F)c3)nnc2c1` [Example 275, 3-({3-fluoro-4-[5-(trifluoromethyl)-1,2,4-oxadiazol-3-yl]phenyl}methoxy)-7-methoxycinnoline], for which the values for the pIC50 on HDAC5 and on HDAC1 were 7.06 and 6.07, respectively.

On to `Fc1cc(COc2cnc(C3CC3)nc2)ccc1-c1noc(C(F)(F)F)n1` [Example 276, 2-cyclopropyl-5-({3-fluoro-4-[5-(trifluoromethyl)-1,2,4-oxadiazol-3-yl]phenyl}methoxy)pyrimidine], for which the figures for the negative logarithm of the IC50 (pIC50) on HDAC5 and at HDAC1 were 6.92 and 5.82, respectively.

On to `Fc1cc(COc2nc3ncccc3n2CC(F)(F)F)ccc1-c1noc(C(F)(F)F)n1` [Example 277, 2-({3-fluoro-4-[5-(trifluoromethyl)-1,2,4-oxadiazol-3-yl]phenyl}methoxy)-1-(2,2,2-trifluoroethyl)-1H-imidazo[4,5-b]pyridine], for which the negative logarithm of the IC50 (pIC50) is 6.89 at HDAC5 and 5.70 at HDAC1.

For the compound `Fc1cc(COc2nc3cccnc3n2CC(F)(F)F)ccc1-c1noc(C(F)(F)F)n1` [Example 278, 2-({3-fluoro-4-[5-(trifluoromethyl)-1,2,4-oxadiazol-3-yl]phenyl}methoxy)-3-(2,2,2-trifluoroethyl)-3H-imidazo[4,5-b]pyridine], the pIC50 on HDAC5 was 7.07; on HDAC1 it was 6.11.

With `COc1ncc(OCc2ccc(-c3noc(C(F)(F)F)n3)c(F)c2)cn1` [Example 279, 5-({3-fluoro-4-[5-(trifluoromethyl)-1,2,4-oxadiazol-3-yl]phenyl}methoxy)-2-methoxypyrimidine], the pIC50 on HDAC5 is 7.16; at HDAC1 it was 6.12.

On to `Fc1cc(COc2nnc(C3CC3)o2)ccc1-c1noc(C(F)(F)F)n1` [Example 280, 3-(4-{[(5-cyclopropyl-1,3,4-oxadiazol-2-yl)oxy]methyl}-2-fluorophenyl)-5-(trifluoromethyl)-1,2,4-oxadiazole], for which the figures for the pIC50 at HDAC5 and on HDAC1 were 6.72 and 5.66, respectively.

As for `Cc1csc(OCc2ccc(-c3noc(C(F)(F)F)n3)c(F)c2)n1` [Example 281, 3-(2-fluoro-4-{[(4-methyl-1,3-thiazol-2-yl)oxy]methyl}phenyl)-5-(trifluoromethyl)-1,2,4-oxadiazole], the negative-log IC50 (pIC50) at HDAC5 was 7.52; on HDAC1, 5.57.

Take `Fc1cc(COc2ccc3cccc(F)c3n2)ccc1-c1noc(C(F)(F)F)n1` [Example 282, 8-fluoro-2-({3-fluoro-4-[5-(trifluoromethyl)-1,2,4-oxadiazol-3-yl]phenyl}methoxy)quinoline]: the pIC50 at HDAC5 is 8.15; at HDAC1, 6.14.

For the compound `Fc1cc(F)c(OCc2ccc(-c3noc(C(F)(F)F)n3)c(F)c2)cn1` [Example 283, 2,4-difluoro-5-({3-fluoro-4-[5-(trifluoromethyl)-1,2,4-oxadiazol-3-yl]phenyl}methoxy)pyridine], the negative-log IC50 (pIC50) was 7.12 on HDAC5 and 4.35 at HDAC1.

As to `CNC(=O)c1ccccc1OCc1ccc(-c2noc(C(F)(F)F)n2)c(F)c1` [Example 284, 2-({3-fluoro-4-[5-(trifluoromethyl)-1,2,4-oxadiazol-3-yl]phenyl}methoxy)-N-methylbenzamide], the pIC50 on HDAC5 is 6.59; on HDAC1, 5.66.

Take `Fc1cc(COc2ccc3cncnc3c2)ccc1-c1noc(C(F)(F)F)n1` [Example 285, 7-({3-fluoro-4-[5-(trifluoromethyl)-1,2,4-oxadiazol-3-yl]phenyl}methoxy)quinazoline]: the negative logarithm of the IC50 (pIC50) on HDAC5 is 6.55; on HDAC1 it was 5.47.

For `Fc1cc(COc2cccc(Cl)n2)ccc1-c1noc(C(F)(F)F)n1` [Example 286, 2-chloro-6-({3-fluoro-4-[5-(trifluoromethyl)-1,2,4-oxadiazol-3-yl]phenyl}methoxy)pyridine], the figures for the negative logarithm of the IC50 (pIC50) at HDAC5 and on HDAC1 were 7.30 and 5.57, respectively.

Turning to `Fc1cc(COc2cncc(Cl)c2)ccc1-c1noc(C(F)(F)F)n1` [Example 287, 3-chloro-5-({3-fluoro-4-[5-(trifluoromethyl)-1,2,4-oxadiazol-3-yl]phenyl}methoxy)pyridine], the negative logarithm of the IC50 (pIC50) on HDAC5 was 6.82; at HDAC1, 5.74.

In the case of `Fc1cc(COc2ccc(Cl)nc2)ccc1-c1noc(C(F)(F)F)n1` [Example 288, 2-chloro-5-({3-fluoro-4-[5-(trifluoromethyl)-1,2,4-oxadiazol-3-yl]phenyl}methoxy)pyridine], the pIC50 on HDAC5 was 6.55; on HDAC1 it was 4.35.

Turning to `Cn1ccc(COc2nccc(-c3noc(C(F)(F)F)n3)c2Cl)n1` [Example 289, 3-chloro-2-[(1-methyl-1H-pyrazol-3-yl)methoxy]-4-[5-(trifluoromethyl)-1,2,4-oxadiazol-3-yl]pyridine], the negative-log IC50 (pIC50) at HDAC5 was 6.17; on HDAC1, 5.08.

Consider `Cc1cnc(COc2nccc(-c3noc(C(F)(F)F)n3)c2Cl)cn1` [Example 290, 2-[({3-chloro-4-[5-(trifluoromethyl)-1,2,4-oxadiazol-3-yl]pyridin-2-yl}oxy)methyl]-5-methylpyrazine], for which the pIC50 on HDAC5 was 6.18; at HDAC1, 5.09.

Regarding `Fc1cccnc1COc1nccc(-c2noc(C(F)(F)F)n2)c1Cl` [Example 291, 3-chloro-2-[(3-fluoropyridin-2-yl)methoxy]-4-[5-(trifluoromethyl)-1,2,4-oxadiazol-3-yl]pyridine], the pIC50 was 6.72 on HDAC5 and 5.03 at HDAC1.

In the case of `Cc1ncc(COc2nccc(-c3noc(C(F)(F)F)n3)c2Cl)c(C)n1` [Example 292, 5-[({3-chloro-4-[5-(trifluoromethyl)-1,2,4-oxadiazol-3-yl]pyridin-2-yl}oxy)methyl]-2,4-dimethylpyrimidine], the negative logarithm of the IC50 (pIC50) on HDAC5 is 6.27; at HDAC1 it was 5.19.

As to `Cn1cc(COc2nccc(-c3noc(C(F)(F)F)n3)c2Cl)nn1` [Example 293, 3-chloro-2-[(1-methyl-1H-1,2,3-triazol-4-yl)methoxy]-4-[5-(trifluoromethyl)-1,2,4-oxadiazol-3-yl]pyridine], the pIC50 on HDAC5 is 6.29; on HDAC1 it was 5.35.

As for `FC(F)(F)c1nc(-c2ccnc(OCc3nccnc3Cl)c2Cl)no1` [Example 294, 2-chloro-3-[({3-chloro-4-[5-(trifluoromethyl)-1,2,4-oxadiazol-3-yl]pyridin-2-yl}oxy)methyl]pyrazine], the pIC50 at HDAC5 is 6.39; at HDAC1, 4.92.

Turning to `FC(F)(F)c1nc(-c2ccnc(OCc3ncccc3Cl)c2Cl)no1` [Example 295, 3-chloro-2-[(3-chloropyridin-2-yl)methoxy]-4-[5-(trifluoromethyl)-1,2,4-oxadiazol-3-yl]pyridine], the pIC50 on HDAC5 was 6.30; on HDAC1, 4.77.

Regarding `FC(F)(F)c1nc(-c2ccc(COc3nc(C4CC4)no3)nc2)no1` [Example 296, 2-{[(3-cyclopropyl-1,2,4-oxadiazol-5-yl)oxy]methyl}-5-[5-(trifluoromethyl)-1,2,4-oxadiazol-3-yl]pyridine], the pIC50 was 7.31 on HDAC5 and 5.43 on HDAC1.

As to `FC(F)(F)c1nc(-c2ccc(COc3cccc4[nH]nnc34)nc2)no1` [Example 297, 4-({5-[5-(trifluoromethyl)-1,2,4-oxadiazol-3-yl]pyridin-2-yl}methoxy)-1H-benzotriazole], the negative-log IC50 (pIC50) was 7.29 on HDAC5 and 6.51 on HDAC1.

Consider `FC(F)(F)c1nc(-c2ccc(COc3nncc4ccccc34)nc2)no1` [Example 298, 1-({5-[5-(trifluoromethyl)-1,2,4-oxadiazol-3-yl]pyridin-2-yl}methoxy)phthalazine], for which the negative-log IC50 (pIC50) at HDAC5 is 6.54; at HDAC1 it was 6.00.

Turning to `O=C1NCCc2c(OCc3ccc(-c4noc(C(F)(F)F)n4)cn3)cccc21` [Example 299, 5-({5-[5-(trifluoromethyl)-1,2,4-oxadiazol-3-yl]pyridin-2-yl}methoxy)-3,4-dihydroisoquinolin-1(2H)-one], the figures for the pIC50 at HDAC5 and at HDAC1 were 6.10 and 5.89, respectively.

On to `O=c1ccc2cnccc2n1Cc1ccc(-c2noc(C(F)(F)F)n2)cn1` [Example 301, 1-({5-[5-(trifluoromethyl)-1,2,4-oxadiazol-3-yl]pyridin-2-yl}methyl)-1,6-naphthyridin-2(1H)-one], for which the pIC50 is 7.43 on HDAC5 and 6.55 at HDAC1.

Regarding `FC(F)(F)c1nc(-c2ccc(COc3nccc4nccn34)nc2)no1` [Example 303, 5-({5-[5-(trifluoromethyl)-1,2,4-oxadiazol-3-yl]pyridin-2-yl}methoxy)imidazo[1,2-c]pyrimidine], the figures for the pIC50 at HDAC5 and at HDAC1 were 6.77 and 6.00, respectively.

For `Cn1c(OCc2ccc(-c3noc(C(F)(F)F)n3)cn2)nc2cccnc21` [Example 304, 3-methyl-2-({5-[5-(trifluoromethyl)-1,2,4-oxadiazol-3-yl]pyridin-2-yl}methoxy)-3H-imidazo[4,5-b]pyridine], the pIC50 was 7.10 at HDAC5 and 6.60 at HDAC1.

`FC(F)(F)c1nc(-c2ccc(COc3ccc4ncnn4c3)nc2)no1` [Example 305, 6-({5-[5-(trifluoromethyl)-1,2,4-oxadiazol-3-yl]pyridin-2-yl}methoxy)[1,2,4]triazolo[1,5-a]pyridine]: the pIC50 on HDAC5 was 5.77; at HDAC1 it was 5.62.

As to `FC(F)c1cc(OCc2ccc(-c3noc(C(F)(F)F)n3)cn2)ncn1` [Example 306, 4-(difluoromethyl)-6-({5-[5-(trifluoromethyl)-1,2,4-oxadiazol-3-yl]pyridin-2-yl}methoxy)pyrimidine], the values for the pIC50 on HDAC5 and on HDAC1 were 6.66 and 5.89, respectively.

Turning to `Cc1cncnc1OCc1ccc(-c2noc(C(F)(F)F)n2)cn1` [Example 307, 5-methyl-4-({5-[5-(trifluoromethyl)-1,2,4-oxadiazol-3-yl]pyridin-2-yl}methoxy)pyrimidine], the negative logarithm of the IC50 (pIC50) was 6.21 at HDAC5 and 5.66 at HDAC1.

(Values after patent US11066396B2 (priority 2016, dated 2021).)
